Source: patent publication US6610708B1, “Cyclic amino compounds” (Sankyo Company, Limited, priority 1998, dated 2003)

How the values were obtained:
Human Platelets = experiment: Antiaggregatory action in human platelets (ADP-induced aggregation in platelet-rich plasma); format: cell-based; details: Platelet, human PRP, read-out: Test 1 (% inhibition) of platelet aggregation; for inhibition at 10 µg/mL: 10 μg/ml test compound; for inhibition at 30 µg/mL: 30 μg/ml test compound; for inhibition at 100 µg/mL: 100 μg/ml test compound
Description: Antiaggregatory Action in Human Platelets
Platelet aggregation was measured using an automatic platelet aggregometer (PAM-8C, Mebanix) using the method of G.V.R. Born [Nature, 194, 927-929 ([…])] with a slight modification. Blood was collected from the antecubital vein of healthy volunteers who had not taken any medications for two weeks using 3.8% sodium citrate as an anticoagulant ( 1/9 volumes of blood). Platelet-rich plasma (PRP) was obtained by centrifugation (CR5DL, Hitachi) at 200× g for 15 min at room temperature. Platelet-poor plasma (PPP) was obtained by centrifugation of the remaining blood at 2,000× g for 10 min at room temperature. Platelet counts in PRP were measured by an automatic hematology analyzer (K-1000, Toa Iyo Denshi), and adjusted to 3×10^8 /ml by adding PPP. PRP prepared as described above was used for the platelet aggregation experiment. PRP (0.24 ml) containing a test compound was added to a cuvette and set placed in the platelet aggregometer. After pre-incubation for 1.5 min at 37° C., 0.01 ml of 0.25 mM ADP were added to the cuvette to induce platelet aggregation. Platelet aggregation was monitored for 10 min.
Antiaggregatory action of the test compound was determined as a percent inhibition (%) against platelet aggregation of a control (free of the test compound).

platelet aggregation = experiment: Antiaggregatory action in rats (ADP-induced platelet aggregation in PRP after intravenous administration); format: in vivo; details: Rattus norvegicus, 1 h, male SD rats, blood collected one hour after administration, versus control rats, read-out: Test 2 (% inhibition)
Description: Antiaggregatory Action in Rats
Platelet aggregation was measured using an automatic platelet aggregometer (PAM-8C, Mebanix) using the method of G.V.R. Born [Nature, 194, 927-929(1962)] with a slight modification. The experimental animals were male SD rats (Japan SLC). One hour after intravenous administration of a test compound to the rats, blood was collected from the abdominal aorta under anesthesia, using 3.8% sodium citrate as an anticoagulant ( 1/9 volumes of blood). Platelet-rich plasma (PRP) was obtained by centrifugation (CR5DL, Hitachi) at 230× g for 15 min at room temperature. Platelet-poor plasma (PPP) was obtained by centrifugation of the remaining blood at 2,000× g for 10 min at room temperature. Platelet counts in PRP were measured by an automatic hematology analyzer (K-1000, Toa Iyo Denshi), and adjusted to 5×10^8 /ml by adding PPP, and then used for the platelet aggregation experiment. PRP (0.24 ml) was added to a cuvette and placed in the platelet aggregometer. After pre-incubation for 1.5 min at 37° C., 0.01 ml of 0.75 mM ADP were added to the cuvette to induce platelet aggregation. Platelet aggregation was monitored for 8 min.
Antiaggregatory action (% inhibition) of the test compound was determined from a comparison of the maximum aggregation of the test compound-treated rat with that of control rats (free of the administration of the test compound).

| SMILES | melting point [°C] | inhibition at 10 µg/mL (Human Platelets) [%] | inhibition at 30 µg/mL (Human Platelets) [%] | inhibition at 100 µg/mL (Human Platelets) [%] | inhibition at 10 mg/kg (platelet aggregation) [%] |
| --- | --- | --- | --- | --- | --- |
| Cc1ccc(S(=O)(=O)SC2CCN(C(C(=O)C3CC3)c3ccccc3F)CC2)cc1 (stereo not drawn) [Example 1, 1-(α-Cyclopropylcarbonyl-2-fluorobenzyl)-4-(4-methylphenylsulfonylthio)-piperidine] | 63 to 69 | 36.5 | 99.6 | 100 | – |
| CCOC(=O)/C=C1\CN(C(C(=O)C2CC2)c2ccccc2F)CCC1SS(=O)(=O)c1ccc(C)cc1 (stereo not drawn) [Example 6 (d), (E)-1-(α-Cyclopropylcarbonyl-2-fluorobenzyl)-3-ethoxycarbonylmethylidene-4-(4-methylphenylsulfonylthio)piperidine] | – | 22.5 | 53.2 | 100 | 51.8 |
| N[C@@H](CSSC1CCN(C(C(=O)C2CC2)c2ccccc2F)C/C1=C/C(=O)O)C(=O)O (stereo partly drawn) [Example 19 (d), (Z)-4-[(R)-2-Amino-2-carboxyethyldisulfanyl]-3-carboxymethylidene-1-(α-cyclopropylcarbonyl-2-fluorobenzyl)piperidine] | – | – | – | – | 89.2 |
| CCOC(=O)/C=C1\CN(C(C(=O)OC)c2ccccc2Cl)CCC1SS(=O)(=O)c1ccc(C)cc1.Cl (stereo not drawn) [Example 7 (d), (E)-1-(2-chloro-α-methoxycarbonylbenzyl)-3-ethoxycarbonylmethylidene-4-(4-methylphenylsulfonylthio)piperidine hydrochloride] | 73 to 78 | 24.6 | 60 | 99.1 | 59 |

The next lines start with results.

| melting point [°C] | SMILES | inhibition at 10 µg/mL (Human Platelets) [%] | inhibition at 30 µg/mL (Human Platelets) [%] | inhibition at 100 µg/mL (Human Platelets) [%] | inhibition at 10 mg/kg (platelet aggregation) [%] |
| --- | --- | --- | --- | --- | --- |
| 144 to 146 | COC(=O)/C=C1\CN(C(C(=O)OC)c2ccccc2Cl)CCC1SS(=O)(=O)c1ccc(C)cc1 (stereo not drawn) [Example 7 (ii), (E)-1-(2-Chloro-α-methoxycarbonylbenzyl)-3-methoxycarbonylmethylidene-4-(4-methylphenylsulfonylthio)piperidine] | 34.5 | 81.5 | – | – |
| 89 to 91 | CS(=O)(=O)SC1CCN(C(C(=O)C2CC2)c2ccccc2F)CC1 (stereo not drawn) [Example 8, 1-(α-Cyclopropylcarbonyl-2-fluorobenzyl)-4-methylsulfonylthiopiperidine] | 19.5 | 88 | 100 | – |
| 110 to 118 | Cc1ccc([S+]([O-])SC2CCN(C(C(=O)C3CC3)c3ccccc3F)CC2)cc1 (stereo not drawn) [Example 13, 1-(α-Cyclopropylcarbonyl-2-fluorobenzyl)-4-(4-methylphenylsulfinylthio)-piperidine] | – | – | – | – |
